Where two headings read alike, the source gives them in different places.
Tests used:
[1] = system: HIV; assay: Time of addition experiment (HIV); type: cell-based
[2] = system: human lymphocyte CEM; assay: Cytostatic activity assay, CEM cells; type: cell-based
[3] = system: HIV; assay: Selection of resistant HIV strains in cell culture; type: cell-based; conditions: ≧9 weeks of attempts in cell culture
[4] = system: HIV-2(ROD); assay: Inhibition of HIV-2 (ROD)-induced cytopathicity (giant cell formation) in CEM cells; type: cell-based; conditions: read-out: EC50 HIV-2 (concentration required to inhibit HIV-induced giant cell formation by 50%); HIV-2, CEM cell cultures
Procedure: (§1) A variety of glycopeptide antibiotic derivatives of vancomycin, eremomycin and teicoplanin including their aglycon derivatives were evaluated for their inhibitory activity against HIV-1 (IIIB) and HIV-2(ROD) in CEM cell cultures.

[5] = system: murine leukemia L1210; assay: Cytostatic activity assay, L1210 cells; type: cell-based; conditions: read-out: IC50 L1210 (compound concentration required to inhibit tumor cell proliferation by 50%)
[6] = system: human lymphocyte Molt4/clone 8; assay: Cytostatic activity assay, Molt4/clone 8 cells; type: cell-based; conditions: read-out: IC50 Molt4/C8 (compound concentration required to inhibit tumor cell proliferation by 50%)
[7] = system: HIV-1 (IIIB); assay: Inhibition of HIV-1 (IIIB)-induced cytopathicity (giant cell formation) in CEM cells; type: cell-based
Procedure: as §1

[8] = system: FCV; assay: Feline corona virus assay in Feline Crandel kidney cells (MTS); type: cell-based; conditions: read-out: EC50 FCV
Procedure: Feline Crandel kidney cells were seeded in 96-well microtiter plates at 24,000 cells/well. Then, 24 hrs later, an appropriate inoculum of FCV is added together with 5-fold dilutions of the test compounds. After 4 days, a MTS/PMS solution was added to each well. Following a 90 min incubation period at 37° C., the optical density of the wells was read at 498 nm in a microplate reader.

[9] = system: HIV-2 (RF); conditions: read-out: EC50 CEM/0 HIV-2 (RF); CEM/0 cells
Procedure: (§2) Inhibition of HIV-1 (IIIB, HE, HN) and HIV-2(ROD, EHO, RF)-induced cytopathicity in CEM or C8166 or Molt4/C8 cells was measured in microtiter 96-well plates containing ˜3×10^5 CEM cells/ml, infected with 100 CCID50 of HIV per ml and containing appropriate dilutions of the test compounds. After 4 to 5 days of incubation at 37° C. in a CO2-controlled humidified atmosphere, CEM, C8166 or Molt4/C8 giant (syncytium) cell formation was examined microscopically.

[10] = system: HIV-2 (EHO); conditions: read-out: EC50 CEM/0 HIV-2 (EHO); CEM/0 cells
Procedure: as §2

[11] = system: HIV-1 (MN); assay: Inhibition of HIV-1 (MN)-induced cytopathicity in CEM/0 cells; type: cell-based
[12] = system: mutant HIV-1 strain Tyr-181-Cys; assay: Anti-HIV-1 activity against mutant HIV-1 strain Tyr-181-Cys in CEM cultures; type: cell-based
[13] = system: HIV-1 (IIIB); assay: Inhibition of HIV-1 (IIIB)-induced cytopathicity in C8166 cells; type: cell-based
[14] = system: HIV-1 (HE); assay: Inhibition of HIV-1 (HE)-induced cytopathicity in CEM/0 cells; type: cell-based
[15] = system: SARS virus (strain Frankfurt-1); assay: microbe, parasite or virus in culture; type: cell-based, human corona (SARS) virus; conditions: read-out: EC50 SARS virus
[16] = system: FCK cells; conditions: read-out: CC50 FCK; FCK cells
[17] = system: mutant HIV-1 strain Tyr-188-His; assay: Anti-HIV-1 activity against mutant HIV-1 strain Tyr-188-His in CEM cultures; type: cell-based
Procedure: as §2

[18] = system: mutant HIV-1 strain Lys-103-Asn; assay: Anti-HIV-1 activity against mutant HIV-1 strain Lys-103-Asn in CEM cultures; type: cell-based
[19] = system: HIV-1(HE); assay: Inhibition of HIV-1 (HE)-induced cytopathicity in MOLT4/C8 cells; type: cell-based
[20] = system: Vero cells; conditions: read-out: CC50 Vero
[21] = system: mutant HIV-1 strain Leu-100-Ile; assay: Anti-HIV-1 activity against mutant HIV-1 strain Leu-100-Ile in CEM cultures; type: cell-based
[22] = system: VZV (wild-type strains); assay: Anti-VZV assay (wild-type strains): virus-induced cytopathicity in HEL cell cultures; type: cell-based, varicella-zoster virus; conditions: HEL cell cultures
[23] = system: HEL cells
[24] = system: HEL cells; conditions: read-out: CC50 (HEL), HEL cells
[25] = system: CMV; assay: Anti-CMV assay: virus-induced cytopathicity in HEL cell cultures
[26] = system: HIV; assay: Anti-HIV activity in cell culture, HIV type not distinguished; type: cell-based; conditions: read-out: EC50 against HIV
Procedure: as §1

[27] = in vitro; conditions: monkey (simian)
[28] = in vitro; conditions: cat
[29] = read-out: IC50 CEM (compound concentration required to inhibit tumor cell proliferation by 50%)
[30] = read-out: EC50 HIV-1 (concentration required to inhibit HIV-induced giant cell formation by 50%), HIV-1, CEM cell cultures
[31] = CEM cultures, wild type in mutant panel, read-out: EC50 HIV-1 IIIB
[32] = CEM/0 cells, read-out: EC50 CEM/0 HIV-1 (IIIB)
[33] = read-out: EC50 CMV AD-169, CMV strain AD-169, HEL cell cultures
[34] = Severe acute respiratory syndrome coronavirus, Vero

Row | Structure (SMILES) | IC50 [2, 29] [µM] | EC50 [4] [µM] | IC50 [5] [µM] | IC50 [6] [µM] | EC50 [7, 30] [µM] | EC50 ([8]; FCV in FCK cells) [µM] | EC50 [9] [µM] | EC50 [10] [µM] | EC50 [11] [µM] | EC50 [14] [µM] | EC50 ([15]; SARS virus in Vero cells) [µM] | CC50 [16] [µM] | EC50 [17] [µM] | EC50 [19] [µM] | CC50 [20] [µM] | EC50 [21] [µM] | EC50 [7, 31] [µM] | EC50 [7, 32] [µM] | further results
1 | Cc1cn([C@H]2C[C@H](N=[N+]=[N-])[C@@H](CO)O2)c(=O)[nH]c1=O [AZT, zidovudine] |  |  |  |  |  |  |  |  |  |  |  |  |  |  |  |  |  |  | time post infection up to which addition can be delayed without loss of antiviral activity [1]: at least 3 h
2 | CCCCCCCCCCNCc1c(O)cc2c(c1O)-c1cc(ccc1O)C1NC(=O)C3NC(=O)C4NC(=O)C(Cc5ccc(c(Cl)c5)Oc5cc3cc(c5O)Oc3ccc(cc3Cl)C(O)C(NC1=O)C(=O)NC2C(=O)NCCCN(C)C)NC(=O)C(N)c1ccc(O)c(c1)Oc1cc(O)cc4c1 (stereo not drawn) [Compound 15] | > 100 | 6 ± 3.9 | 48 ± 8 | > 100 | 1.4 ± 0.6 |  |  |  |  |  |  |  |  |  |  |  |  |  | selection of resistant virus strains [3]: failed
3 | CN(C)CCCNC(=O)C1NC(=O)C2NC(=O)C(NC(=O)C3NC(=O)C4NC(=O)C(Cc5ccc(c(Cl)c5)Oc5cc3cc(c5O)Oc3ccc(cc3Cl)C2O)NC(=O)C(N)c2ccc(O)c(c2)Oc2cc(O)cc4c2)c2ccc(O)c(c2)-c2c1cc(O)c(CNC1C3CC4CC(C3)CC1C4)c2O (stereo not drawn) [Compound 19] | > 500 | 8 ± 2.8 | > 500 | > 500 | 2.5 ± 0.7 | 18 | 9.5 ± 3.5 | 15 | 13 ± 2.1 | 12 | 23 | > 50 | 11 ± 1.4 | 9 ± 1.4 | > 100 | 11.5 ± 2.1 | 6 ± 1.4 | 6 ± 1.4 | EC50 [12]: 7.5 ± 3.5 µM; EC50 [13]: 9.5 ± 3.5 µM; selection of resistant virus strains [3]: failed; EC50 [18]: 8.5 ± 2.1 µM
4 | CCCCc1ccc(CN2CCN(Cc3c(O)cc4c(c3O)-c3cc(ccc3O)C3NC(=O)C5NC(=O)C6NC(=O)C(Cc7ccc(c(Cl)c7)Oc7cc5cc(c7O)Oc5ccc(cc5Cl)C(O)C(NC3=O)C(=O)NC4C(=O)NCCCN(C)C)NC(=O)C(N)c3ccc(O)c(c3)Oc3cc(O)cc6c3)CC2)cc1 (stereo not drawn) [Compound 30] | > 500 | 5 ± 1.4 | 29 ± 7 | 108 ± 79 | 3 | 9.2 | 3.7 ± 1.25 | 11 ± 1.4 | 7 | 5.5 ± 0.7 | 33 | ≥ 50 | 7.5 ± 0.7 | 4.5 ± 0.7 | > 100 | 6 ± 1.4 | 2.8 ± 0.4 | 2.8 ± 0.4 | EC50 [13]: ≥ 5 µM
5 | CCCCc1ccc(CN2CCN(Cc3c(O)cc4c(c3O)-c3cc(ccc3O)C3NC(=O)C5NC(=O)C6NC(=O)C(Cc7ccc(c(Cl)c7)Oc7cc5cc(c7O)Oc5ccc(cc5Cl)C(O)C(NC3=O)C(=O)NC4C(=O)NC)NC(=O)C(N)c3ccc(O)c(c3)Oc3cc(O)cc6c3)CC2)cc1 (stereo not drawn) [Compound 31] | > 500 | 3 ± 1.4 | 61 ± 10 | > 500 | 1.7 ± 0.42 | > 100 | 3.7 ± 1.77 | 6.8 ± 0.35 | 6.5 ± 0.7 | 9.5 ± 3.5 | 24 | ≥ 20 | 6 ± 1.4 | 3.7 ± 0.35 | > 100 | 5.3 ± 2.5 | 2.8 ± 0.4 | 2.8 ± 0.4 | EC50 ([22]; VZV strain OKA, read-out: EC50 VZV (OKA)): 0.75 µM; EC50 ([22]; VZV strain YS, read-out: EC50 VZV (YS)): 0.85 µM; EC50 [12]: 8.5 ± 2.1 µM; EC50 [13]: 6.6 ± 3.06 µM; MTC (HEL) ([23]; anti-CMV table): 20 to 50 µM; MTC (HEL) ([23]; anti-VZV table): 20 to 50 µM; EC50 [18]: 6 ± 1.4 µM; CC50 ([24]; anti-CMV table): > 200 µM; CC50 ([24]; anti-VZV table): > 200 µM; anti-CMV activity [25]: anti-CMV activity; EC50 [25, 33]: ≥ 20 µM; EC50 ([25]; read-out: EC50 CMV Davis, CMV strain Davis, HEL cell cultures): 10 µM
6 | CNC(=O)C1NC(=O)C2NC(=O)C(NC(=O)C3NC(=O)C4NC(=O)C(Cc5ccc(c(Cl)c5)Oc5cc3cc(c5O)Oc3ccc(cc3Cl)C2O)NC(=O)C(N)c2ccc(O)c(c2)Oc2cc(O)cc4c2)c2ccc(O)c(c2)-c2c1cc(O)c(CNC1C3CC4CC(C3)CC1C4)c2O (stereo not drawn) [Compound 51] | > 250 | 17 ± 3.5 | 212 ± 54 | > 250 | 5 ± 1.4 | 15 | 9 ± 4.2 | 13 ± 6.6 | 25 ± 7.1 | 40 | 39 | ≥ 100 | 11 ± 6.4 | 25 ± 5 | > 100 | 24 ± 6.3 | 5 ± 1.4 | 5 ± 1.4 | EC50 [12]: 9.5 ± 2.1 µM; EC50 [18]: 12 µM
7 | N[C@H]1C(=O)N[C@@H]2Cc3ccc(c(Cl)c3)Oc3cc4cc(c3O)Oc3ccc(cc3Cl)[C@@H](O)[C@@H]3NC(=O)[C@H](NC(=O)[C@@H]4NC(=O)[C@@H](NC2=O)c2cc(O)cc(c2)Oc2cc1ccc2O)c1ccc(O)c(c1)-c1c(O)cc(O)cc1[C@@H](C(=O)O)NC3=O [Compound 112, Teicoplanin aglycon] | > 500 | 20 | > 500 | > 500 | 17 ± 3.5 |  |  |  |  |  |  |  |  |  |  |  |  |  | IC50 ([2]; read-out: IC50 (toxicity in cell culture)): > 500 µM; MTC (HEL) ([23]; anti-CMV table): ≧20-200 μM; CC50 ([24]; anti-CMV table): > 200 µM; EC50 [26]: 17 to 20 µM; EC50 [25, 33]: 32 µM
8 | COC(=O)C1NC(=O)C2NC(=O)C(NC(=O)C(NC(=O)OC(C)(C)C)c3cc(Oc4ccc(CC(NC(=O)OCc5ccccc5)C(=O)O)cc4Cl)c(O)c(c3)Oc3ccc(cc3Cl)C2O)c2ccc(O)c(c2)-c2c(O)cc(O)cc21 (stereo not drawn) [Compound 170] |  |  |  |  |  |  |  |  |  |  |  |  |  |  |  |  |  |  | EC50 ([8]; Felis catus): 23 µM; EC50 [15, 34]: 32 µM; CC50 [27]: > 100 µM; CC50 [28]: > 100 µM
9 | NC1Cc2ccc(c(Cl)c2)Oc2cc3cc(c2O)Oc2ccc(cc2Cl)C(O)C2NC(=O)C(NC(=O)C3NC(=O)C(c3cc(O)cc(Oc4cc(C5NC(=S)N(c6ccccc6)C5=O)ccc4O)c3)NC1=O)c1ccc(O)c(c1)-c1c(O)cc(O)cc1C(C(=O)O)NC2=O (stereo not drawn) [Compound 171] |  |  |  |  |  |  |  |  |  |  |  |  |  |  |  |  |  |  | EC50 [15, 34]: 29 µM; CC50 [27]: > 100 µM; CC50 [28]: > 100 µM
10 | NC1C(=O)NC2Cc3ccc(c(Cl)c3)Oc3cc4cc(c3O)Oc3ccc(cc3Cl)C(O)C(C(=O)O)NC(=O)C(c3ccc(O)c(-c5c(O)cc(O)cc5C(N)C(=O)O)c3)NC(=O)C4NC(=O)C(NC2=O)c2cc(O)cc(c2)Oc2cc1ccc2O (stereo not drawn) [Compound 172] |  |  |  |  |  |  |  |  |  |  |  |  |  |  |  |  |  |  | EC50 ([8]; Felis catus): ≥ 100 µM; EC50 [15, 34]: 38 µM; CC50 [27]: > 100 µM; CC50 [28]: > 100 µM
11 | Cc1ccnc2c1NC(=O)c1cccnc1N2C1CC1 [nevirapine, reference compound] |  |  |  |  |  |  |  |  |  |  |  |  |  |  |  |  |  |  | selection of resistant virus strains [3]: easily resulted in the emergence
